This passage reports IC50, EC50 and ring closure, isolated yield results from patent publication US20250195521A1 (Revolution Medicines, Inc., priority 2020, published 2025).

For series [1], the target named is KRAS Q61H binding to BRAF RBD (Homo sapiens (Human), UniProt P01116+P62937, Q61H). Description: Ras-Raf disruption/FRET/MOA assay, KRAS Q61H. The series is classed as biochemical. From the text: (§1) Disruption of B-Raf Ras-binding Domain (BRAF^RBD) Interaction with K-Ras by Compounds of the Invention (also called a FRET assay or an MOA assay)
Chain of KRAS Q61H binding to BRAF RBD (P01116 other isoform, or with tags, fused parts or gaps Q61H): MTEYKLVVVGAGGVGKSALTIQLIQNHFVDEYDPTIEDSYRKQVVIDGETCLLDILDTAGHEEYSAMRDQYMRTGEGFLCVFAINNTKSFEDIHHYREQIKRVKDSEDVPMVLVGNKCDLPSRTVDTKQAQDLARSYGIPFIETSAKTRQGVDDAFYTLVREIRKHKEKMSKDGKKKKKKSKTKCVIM
Chain of KRAS Q61H binding to BRAF RBD (P62937 whole entry, the tested form may be a part): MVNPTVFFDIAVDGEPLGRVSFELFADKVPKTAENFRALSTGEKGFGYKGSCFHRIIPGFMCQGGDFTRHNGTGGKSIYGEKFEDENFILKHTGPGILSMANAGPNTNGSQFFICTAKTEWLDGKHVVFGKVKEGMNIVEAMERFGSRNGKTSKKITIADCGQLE
(§2) Note—The following protocol describes a procedure for monitoring disruption of K-Ras G12C(GMP-PNP) binding to BRAF^RBD by a compound of the invention. This protocol may also be executed substituting other Ras proteins or nucleotides.
(§3) The purpose of this biochemical assay was to measure the ability of test compounds to facilitate ternary complex formation between a nucleotide-loaded K-Ras isoform and Cyclophilin A; the resulting ternary complex disrupts binding to a BRAF^RBD construct, inhibiting K-Ras signaling through a RAF effector. Data is reported as IC50 values.
(§4) In assay buffer containing 25 mM HEPES pH 7.3, 0.002% Tween20, 0.1% BSA, 100 mM NaCl and 5 mM MgCl2, tagless Cyclophilin A, His6-K-Ras-GMPPNP, and GST-BRAF^RBD were combined in a 384-well assay plate at final concentrations of 25 μM, 12.5 nM and 50 nM, respectively. Compound was present in plate wells as a 10-point 3-fold dilution series starting at a final concentration of 30 μM. After incubation at 25° C. for 3 hours, a mixture of Anti-His Eu—W1024 and anti-GST allophycocyanin was then added to assay sample wells at final concentrations of 10 nM and 50 nM, respectively, and the reaction incubated for an additional 1.5 hours. […] Compounds that facilitate disruption of a K-Ras: RAF complex were identified as those eliciting a decrease in the TR-FRET ratio relative to DMSO control wells.

Series [2] has as its target NRAS Q61R binding to BRAF RBD (Homo sapiens (Human), UniProt P01111+P62937, Q61R). Put plainly: Ras-Raf disruption/FRET/MOA assay, NRAS Q61R. The format is biochemical.
Source text: as §1, §2, §3, §4

In series [3] the target is NRAS Q61K binding to BRAF RBD (Homo sapiens (Human), UniProt P01111+P62937, Q61K). Put plainly: Ras-Raf disruption/FRET/MOA assay, NRAS Q61K. The series is classed as biochemical.
Chain of NRAS Q61K binding to BRAF RBD (P01111 whole entry Q61K): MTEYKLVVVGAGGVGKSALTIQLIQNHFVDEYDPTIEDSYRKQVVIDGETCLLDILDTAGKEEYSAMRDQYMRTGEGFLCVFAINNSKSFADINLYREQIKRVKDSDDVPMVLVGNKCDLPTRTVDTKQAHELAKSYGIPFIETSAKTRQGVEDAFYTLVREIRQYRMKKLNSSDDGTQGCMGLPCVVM
Chain of NRAS Q61K binding to BRAF RBD (P62937 whole entry): as the sequence (P62937 whole entry, the tested form may be a part) above
Source text: as §1, §2, §3, §4

In series [4] the target is NRAS WT binding to BRAF RBD (Homo sapiens (Human), UniProt P01111+P62937). Put plainly: Ras-Raf disruption/FRET/MOA assay, NRAS WT. The series is classed as biochemical.
Chain of NRAS WT binding to BRAF RBD (P01111 whole entry): as the sequence (P01111 whole entry Q61K) above, with K61Q counted along it
Chain of NRAS WT binding to BRAF RBD (P62937 whole entry): as the sequence (P62937 whole entry, the tested form may be a part) above
Source text: as §1, §2, §3, §4

In series [5] the test system is K-Ras G12C (NCI-H358 cells). Description: Potency assay: pERK in NCI-H358 cells. The format is cell-based, human. The conditions noted are these: Homo sapiens; NCI-H358 cells, 4 hours; read-out: pERK EC50 (H358 KRAS G12C). The gist of the method:
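Cells plated the day before were exposed for 4 h at 37° C, 5% CO2 to a 10-point, 3-fold DMSO dilution series (10 mM top stock), in duplicate. Phospho-ERK was read by AlphaLISA SureFire Ultra or by In-Cell Western with DRAQ5 DNA stain, and IC50 came from a 4-parameter sigmoidal fit.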

Series [6] deals with KRAS G13D binding to BRAF RBD (Homo sapiens (Human), UniProt P01116+P62937, G13D). Put plainly: Ras-Raf disruption/FRET/MOA assay, KRAS G13D. The format is biochemical. The gist of the method:
(§5)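 TR-FRET ratio drop relative to DMSO wells marks disruption of the Ras–RAF complex, reported as IC50. Compounds promote a Ras(nucleotide)–cyclophilin A ternary complex that blocks BRAF RBD binding; dosing was 10 points, 3-fold, top 30 μM final, 3 h at 25° C before detection.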

For series [7], the target named is NRAS G12C binding to BRAF RBD (Homo sapiens (Human), UniProt P01111+P62937, G12C). Put plainly: Ras-Raf disruption/FRET/MOA assay, NRAS G12C. The series is classed as biochemical. The gist of the method:
as §5

For series [8] the following is noted: 18-membered ring.

Read-outs that look alike come from different tables or passages of the source.

Chain of NRAS Q61R binding to BRAF RBD (P01111 whole entry Q61R): as the sequence (P01111 whole entry Q61K) above, with K61R counted along it
Chain of NRAS Q61R binding to BRAF RBD (P62937 whole entry): as the sequence (P62937 whole entry, the tested form may be a part) above
Chain of NRAS G12C binding to BRAF RBD (P01111 whole entry G12C): as the sequence (P01111 whole entry Q61K) above, with G12C, K61Q counted along it
Chain of NRAS G12C binding to BRAF RBD (P62937 whole entry): as the sequence (P62937 whole entry, the tested form may be a part) above
Chain of KRAS G13D binding to BRAF RBD (P01116 other isoform, or with tags, fused parts or gaps G13D): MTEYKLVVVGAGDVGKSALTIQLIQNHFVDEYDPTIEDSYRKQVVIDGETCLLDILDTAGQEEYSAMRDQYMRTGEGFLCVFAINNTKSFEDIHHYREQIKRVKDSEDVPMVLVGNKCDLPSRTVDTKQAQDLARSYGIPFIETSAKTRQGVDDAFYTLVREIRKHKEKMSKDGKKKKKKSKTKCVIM
Chain of KRAS G13D binding to BRAF RBD (P62937 whole entry): as the sequence (P62937 whole entry, the tested form may be a part) above

Broadly, the IC50 is the concentration at which inhibition is half-maximal. For the compound `C=C(C)C(=O)N1CC(N(C)C(=O)N(C)[C@H](C(=O)N[C@H]2Cc3nc(cs3)-c3ccc4c(c3)c(c(-c3cccnc3[C@H](C)OC)n4CC)CC(C)(C)COC(=O)[C@@H]3CCCN(N3)C2=O)C(C)C)C1` [Compound A359], the IC50 in series [1], in series [2], in series [3] and in series [4] was 1 to 10 µM each time.

Usually EC50 stands for the concentration that produces a half-maximal response. Take `C=CC(=O)N1CC[C@H](C(=O)C2CC[C@H](C)[C@H]2C(=O)N[C@H]2Cc3cccc(c3)-c3ccc4c(c3)c(c(-c3cccnc3[C@H](C)OC)n4CC)CC(C)(C)COC(=O)[C@@H]3CCCN(N3)C2=O)C1` (some centres unmarked) [Compound A494]: in series [5], the EC50 was < 5 µM. For the same compound, the IC50 in series [6] is > 10 µM; in series [1], 0.1 to 1 µM; in series [7] it was 0.1 to 1 µM; in series [2], 1 to 10 µM; in series [3], 1 to 10 µM; in series [4], 1 to 10 µM.

On to “(9H-fluoren-9-yl)methyl-7-(5-((6^3S,3S,4S,Z)-4-((tert-butoxycarbonyl) amino)-3-ethoxy-1^1-ethyl-10,10-dimethyl-5,7-dioxo-6^1,6^2,6^3,6^4,6^5,6^6-hexahydro-1^1H-8-oxa-2 (4,2)-thiazola-1 (5,3)-indola-6 (1,3)-pyridazinacycloundecaphane- 12-yl)-6-((S)-1-methoxyethyl) pyridin-3-yl)-3-oxa-9-azabicyclo[3.3.1] non-6-ene-9-carboxylate”, for which the ring closure, isolated yield in series [8] (cc_pd bond, Pd(dppf)Cl2.DCM/K3PO4, toluene/dioxane/H2O 3:1:1, 205.0 mM, 80.0 °C) turned out to be 49%.

In series [8] (cc_pd bond, XPhos-Pd-G3/XPhos/K3PO4, toluene/1,4-dioxane/H2O 3:1:1, 28.0 mM, 65.0 °C), “benzyl 4-(5-((3′S,3′S,4′S,Z)-4′-((tert-butoxycarbonyl) amino)-3′-ethoxy-1′-(2-isopropoxyethyl)-5′, 7′-dioxospiro[cyclopropane-1,10′-8-oxa-2 (4,2)-thiazola-1 (5,3)-indola-6 (1,3)-pyridazinacycloundecaphan]-2′-yl)-6-((S)-1-methoxyethyl) pyridin-3-yl) piperazine-1-carboxylate” had a ring closure, isolated yield of 27%.

On to “benzyl 4-(5-((6^3S,3S,4S,Z)-4-((tert-butoxycarbonyl) amino)-3-ethoxy-1^1-(2-isopropoxyethyl)-10,10-dimethyl-5,7-dioxo-6^1,6^2,6^3,6^4,6^5,6^6-hexahydro-1^1H-8-oxa-2 (4,2)-thiazola-1 (5,3)-indola-6 (1,3)- pyridazinacycloundecaphane-12-yl)-6-((S)-1-methoxyethyl) pyridin-3-yl) piperazine-1-carboxylate”, for which, in series [8] (cc_pd bond, Pd(dtbpf)Cl2/K3PO4, toluene/1,4-dioxane/H2O 3:1:1, 16.0 mM, 65.0 °C), the ring closure, isolated yield worked out at 44%.

In the case of “benzyl 4-((((6^3S,3S,4S,Z)-4-((tert-butoxycarbonyl) amino)-1^1-ethyl-1^2-(2-((S)-1-methoxyethyl) pyridin-3-yl)-10,10-dimethyl-5,7-dioxo-6^1,6^2,6^3,6^4,6^5,6^6-hexahydro-1^1H-8-oxa-2 (4,2)-thiazola-1 (5,3)-indola-6 (1,3)-pyridazinacycloundecaphane-3-yl)oxy) methyl)-3,6-dihydropyridine-1 (2H)-carboxylate”, the ring closure, isolated yield in series [8] (cc_pd bond, Pd(dtbpf)Cl2/K3PO4, toluene/dioxane/H2O, 60.0 °C) amounted to 32%.

“benzyl 5-((6^3S,3S,4S,Z)-4-((tert-butoxycarbonyl) amino)-3-ethoxy-1^1-ethyl-10, 10-dimethyl-5,7-dioxo-6^1,6^2,6^3,6^4,6^5,6^6-hexahydro-1^1H-8-oxa-2 (4,2)-thiazola-1 (5,3)-indola-6 (1,3)-pyridazinacycloundecaphane-12-yl)-6-((S)-1-methoxyethyl)-3′, 6′-dihydro-[3,4′-bipyridine]-1′ (2′H)-carboxylate” registered a ring closure, isolated yield in series [8] (cc_pd bond, Pd(dtbpf)Cl2/K3PO4, toluene/1,4-dioxane/H2O 3:1:1, 40.7 mM, 70.0 °C) of 39%.

In turn, “tert-butyl ((2^2R,6^3S,4S)-1^1-ethyl-1^2-(2-((S)-1-methoxyethyl) pyridin-3-yl)-22-(methoxymethyl)-10,10-dimethyl-5,7-dioxo-2^1,2^2,2^3,2^6,6^1,6^2,6^3,6^4,6^5,6^6-decahydro-1^1H-8-oxa-1 (5,3)-indola-6 (1,3)-pyridazina-2 (5,1)-pyridinacycloundecaphane-4-yl) carbamate” gave a ring closure, isolated yield in series [8] (cc_pd bond, Pd(dppf)Cl2/K3PO4, toluene/dioxane/H2O, […], 70.0 °C) of 30%.

In series [8] (cc_pd bond, Pd(dtbpf)Cl2/K3PO4, toluene/dioxane/H2O, 10.0 mM, 60.0 °C), “tert-butyl ((6^3S,3S,4S,Z)-3-(2,2-difluoroethoxy)-1^1-ethyl-1^2-(2-((S)-1-methoxyethyl) pyridin-3-yl)-10,10-dimethyl-5,7-dioxo-6^1,6^2,6^3,6^4,6^5,6^6-hexahydro-1^1H-8-oxa-2 (4,2)-thiazola-1 (5,3)-indola-6 (1,3)-pyridazinacycloundecaphane-4-yl) carbamate” yielded a ring closure, isolated yield of 59%.

Compound “tert-butyl ((6^3S,3S,4S,Z)-3-ethoxy-1^1-ethyl-1^2-(2-((S)-1-methoxyethyl) pyridin-3-yl)-10, 10-dimethyl-5,7-dioxo-6^1,6^2,6^3,6^4,6^5,6^6-hexahydro-1^1H-8-oxa-2 (4,2)-thiazola-1 (5,3)-indola-6 (1,3)-pyridazinacycloundecaphane-4-yl) carbamate” yielded a ring closure, isolated yield in series [8] (cc_pd bond, Pd(dtbpf)Cl2/K3PO4, toluene/dioxane/H2O, 26.7 mM, 60.0 °C) of 31%.

Regarding “tert-butyl ((6^3S,4S)-2^3-((tert-butyldiphenylsilyl)oxy)-1^1-ethyl-1^2-(2-((S)-1-methoxyethyl) pyridin-3-yl)-10,10-dimethyl-5,7-dioxo-2^1,2^2,2^3,2^6,6^1,6^2,6^3,6^4,6^5,6^6-decahydro-1^1H-8-oxa-1 (5,3)-indola-6 (1,3)- pyridazina-2 (5,1)-pyridinacycloundecaphane-4-yl) carbamate”, the ring closure, isolated yield in series [8] (cc_pd bond, Pd(dppf)Cl2/K2CO3, toluene/1,4-dioxane/H2O 3:1:1, 20.0 mM, 65.0 °C) was determined as 42%.

As for “tert-butyl ((6^3S,4S)-25-(difluoromethyl)-1^1-ethyl-1^2-(2-((S)-1-methoxyethyl) pyridin-3-yl)-10,10-dimethyl-5,7-dioxo-6^1,6^2,6^3,6^4,6^5,6^6-hexahydro-1^1H-8-oxa-1 (5,3)-indola-6 (1,3)-pyridazina-2 (1,3)-benzenacycloundecaphane-4-yl) carbamate”, the ring closure, isolated yield in series [8] (ester bond, EDCI/HOBt/DIEA, DCM) came to 51%.

“tert-butyl ((6^3S,4S,Z)-1^1-ethyl-1^2-(2-((S)-1-methoxyethyl) pyridin-3-yl)-10,10-dimethyl-5,7-dioxo-6^1,6^2,6^3,6^4,6^5,6^6-hexahydro-1^1H-8-oxa-2 (2,4)-oxazola-1 (5,3)-indola-6 (1,3)-pyridazinacycloundecaphane-4-yl) carbamate”: in series [8] (cc_pd bond, XPhos Pd G3/XPhos/K3PO4, dioxane/H2O 5:1, 55.0 mM, 70.0 °C), the ring closure, isolated yield was 56%.

Regarding “tert-butyl ((6^3S,4S,Z)-1^1-ethyl-1^2-(2-((S)-1-methoxyethyl) pyridin-3-yl)-21, 10, 10-trimethyl-5,7-dioxo-6^1,6^2,6^3,6^4,6^5,6^6-hexahydro-11H,21H-8-oxa-1 (5,3)-indola-6 (1,3)-pyridazina-2 (5,3)-triazolacycloundecaphane-4-yl) carbamate”, the ring closure, isolated yield in series [8] (cc_pd bond, XPhos Pd G3/XPhos/K3PO4, dioxane/H2O 5:1, 71.7 mM, 75.0 °C) is 56.8%.
